Data reported in patent US20110178299A1, “OPTICALLY ACTIVE DIFLUOROMETHANESULFONANILIDE DERIVATIVE AND HERBICIDE” (Kumiai Chemical Industry Co., Ltd., priority 2008, published 2011).

Tests used:
Assay in all cases: Paddy pot test of herbicidal effect, water surface application of wettable powder
Format in all cases: in vivo
Settings in all cases: applied onto water surface 3 days after sowing, examined after 30 days
[1] = tested on: Echinochloa oryzicola Vasing
Protocol: (§1) A paddy field soil was filled in a plastic pot having an area of 1/5000 are. Beginning of irrigation, fertilizer application and puddling were conducted. Then, seeds of Echinochloa oryzicola Vasing, Monochoria vaginalis Presl var. plan-taginea (Roxb.) Solms-Lau. and Scirpus juncoides Roxb. were sowed at a depth of 0.5 cm, and submerging was conducted so as to give a water depth of 4 cm. 3 days after the sowing, the wettable powder prepared as in the formulation 1 was diluted with water and dropwise added onto the water surface so that the active ingredient amount (g/10 are) added became the level shown in Table 2. Then, breeding was made at room temperature and, after 30 days, herbicidal effect was examined according to the yardstick shown in Table 1.

[2] = tested on: Monochoria vaginalis Presl var. plan-taginea (Roxb.) Solms-Lau.
Protocol: as §1

Scirpus juncoides Roxb. = tested on: Scirpus juncoides Roxb.
Protocol: as §1

Compound	Herbicidal effect (degree of growth control) index, Echinochloa oryzicola ([1]; dose 0.04 g ai/10 a)	Herbicidal effect (degree of growth control) index, Echinochloa oryzicola ([1]; dose 0.08 g ai/10 a)	Herbicidal effect (degree of growth control) index, Echinochloa oryzicola ([1]; dose 0.16 g ai/10 a)	Herbicidal effect (degree of growth control) index, Echinochloa oryzicola ([1]; dose 0.32 g ai/10 a)	Herbicidal effect (degree of growth control) index, Monochoria vaginalis ([2]; dose 0.04 g ai/10 a)	Herbicidal effect (degree of growth control) index, Monochoria vaginalis ([2]; dose 0.08 g ai/10 a)	Herbicidal effect (degree of growth control) index, Monochoria vaginalis ([2]; dose 0.16 g ai/10 a)	Herbicidal effect (degree of growth control) index, Monochoria vaginalis ([2]; dose 0.32 g ai/10 a)	Herbicidal effect (degree of growth control) index, Scirpus juncoides (Scirpus juncoides Roxb.; dose 0.04 g ai/10 a)	Herbicidal effect (degree of growth control) index, Scirpus juncoides (Scirpus juncoides Roxb.; dose 0.08 g ai/10 a)	Herbicidal effect (degree of growth control) index, Scirpus juncoides (Scirpus juncoides Roxb.; dose 0.16 g ai/10 a)	Herbicidal effect (degree of growth control) index, Scirpus juncoides (Scirpus juncoides Roxb.; dose 0.32 g ai/10 a)
COCc1cccc(C(O)c2nc(OC)cc(OC)n2)c1NS(=O)(=O)C(F)F (racemic) [compound 2, (RS)-2′-(4,6-dimethoxypyrimidin-2-yl)hydroxymethyl-6′-methoxymethyl-1,1-difluoromethanesulfonanilide, reference compound]	1 (Herbicidal effect of 10% inclusive to 20% exclusive)	3 (Herbicidal effect of 30% inclusive to 40% exclusive)	5 (Herbicidal effect of 50% inclusive to 60% exclusive)	7 (Herbicidal effect of 70% inclusive to 80% exclusive)	0 (Herbicidal effect of less than 10%)	0 (Herbicidal effect of less than 10%)	9 (Herbicidal effect of 90 inclusive to 100% exclusive)	10 (Herbicidal effect of 100% control)	2 (Herbicidal effect of 20% inclusive to 30% exclusive)	8 (Herbicidal effect of 80% inclusive to 90% exclusive)	9 (Herbicidal effect of 90 inclusive to 100% exclusive)	10 (Herbicidal effect of 100% control)
COCc1cccc([C@@H](O)c2nc(OC)cc(OC)n2)c1NS(=O)(=O)C(F)F [compound 1, (R)-2′-(4,6-dimethoxypyrimidin-2-yl)hydroxymethyl-6′-methoxymethyl-1,1-difluoromethanesulfonanilide]	1 (Herbicidal effect of 10% inclusive to 20% exclusive)	6 (Herbicidal effect of 60% inclusive to 70% exclusive)	9 (Herbicidal effect of 90 inclusive to 100% exclusive)	9 (Herbicidal effect of 90 inclusive to 100% exclusive)	0 (Herbicidal effect of less than 10%)	9 (Herbicidal effect of 90 inclusive to 100% exclusive)	10 (Herbicidal effect of 100% control)	10 (Herbicidal effect of 100% control)	7 (Herbicidal effect of 70% inclusive to 80% exclusive)	9 (Herbicidal effect of 90 inclusive to 100% exclusive)	10 (Herbicidal effect of 100% control)	10 (Herbicidal effect of 100% control)
COCc1cccc([C@H](O)c2nc(OC)cc(OC)n2)c1NS(=O)(=O)C(F)F [compound 3, (S)-2′-(4,6-dimethoxypyrimidin-2-yl)hydroxyl-methyl-6′-methoxymethyl-1,1-difluoromethanesulfonanilide]	–	–	–	0 (Herbicidal effect of less than 10%)	–	–	–	0 (Herbicidal effect of less than 10%)	–	–	–	0 (Herbicidal effect of less than 10%)
